Results on one molecule are retold here after patent US6648952B1, “Anthrapyridone compound, aqueous magenta ink compositions and ink-jet recording method” (Nippon Kayaku Kabushiki Kaisha, priority 1999, dated 2003).

This data set can be described thus: Solubility of the dye in pure water. Format: physicochemical. The following applies: pure water (ion exchanged water), 25° C.

Where a name gives a salt, the structure may show the parent alone.

The solubility is the dissolved amount per volume that the medium holds. In the case of `CC(C)(C)CC(C)(C)c1ccc(Oc2cc(Nc3ccc(S(=O)(=O)O)cc3)c3c4c(c(C(=O)c5ccccc5)c(=O)[nH]c24)-c2ccccc2C3=O)c(S(=O)(=O)O)c1` [Example M1, sodium salt of anthrapyridone disulfonic acid of Formula (1)], the solubility is 100 mg/mL.
